Experiments:
[1] = GC-MS of GFP-affinity purified extract of transduced Ppara-null hippocampal neurons; type: binding, mouse; conditions: Vector Only; for Rel. Abundance (RA): normalized with internal standard
Procedure: Lentivirus-mediated de novo expression studies were performed, where wild type full-length (GFP-FLPpara) was overexpressed and three different LBD-mutated PPARα (GFP-Y314D, GFP-Y464D and GFP-Y314D/Y464D Ppara) recombinant proteins (FIG. 9D) were expressed in neurons followed by binding analyses with three endogenous ligands. Briefly, site directed mutagenesis was performed in the mouse PPARα with Y314 and Y464 residues replaced separately or together with aspartate (D). After that, the entire mouse GFP-Ppara gene (GFP-FLPpara) and three different mutated genes were cloned in the pLenti6/V5-TOPO lentiviral expression vector (FIG. 3D), packaged in lentivirus particle with HEK293FT cells, purified full length and mutated PPARα proteins in a GFP-affinity column, and finally thermal shift assays were performed in order to analyze their conformational stability. […] After 48 h of transduction, the cells were homogenized, passed through GFP-affinity column, eluted, fractionated with chloroform-methanol, and finally analyzed by GC-MS for the detection of ligands. […] On the other hand, mutation of the Y464 completely knocked down the ligand binding affinity as we observed profound loss of ligand binding in both lenti-GFP-Y464D-Ppara (FIG. 3K, FIG. 9K) and lenti-GFP-Y314D/Y464D-Ppara (FIG. 3L, FIG. 9L)-transduced Ppara-null neurons. Throughout these analyses, we used 2,4-bis (α, α-dimethyl benzyl) phenol as an internal standard (Supplementary FIG. 5A-F). We normalized peak area of different ligands with that of internal standard and then quantified the binding affinity of these ligands with different construct of PPARα by peak integration statistics (Table 1).
Either E18 cultured mouse hippocampal neurons or hippocampal tissue of 6-8 week old male C57/BL6 mice were homogenized in ice-cold nondetergent hypotonic buffer [10 mM HEPES (pH 7.9), 1.5 mM MgCl2, 10 mM KCl, […], protease and phosphatase inhibitor cocktail]. After 10 min of additional incubation in the hypotonic buffer, the homogenate was centrifuged at 8,000 g at 4° C. for 10 min. Next, the pellet was homogenized in ice-cold extraction buffer [10 mM HEPES (pH 7.9), 1.5 mM MgCl2, 0.21 M NaCl, 0.2 mM EDTA, 25% (v/v) glycerol, […], protease and phosphatase inhibitor cocktail], placed on a rotating shaker at 4° C. for 1 h, and then centrifuged at 18,000 g for 10 min. The supernatant (nuclear fraction) was incubated with 1.5 μg of GST PPARα LBD (Protein One) at 4° C. for 6 h in a rotating shaker. The reaction mixture was passed through glutathione column (Pierce® GST Spin Purification Kit), washed four times [50 mM Tris HCl (pH 7.4), 100 mM NaCl, protease and phosphatase inhibitor cocktail] and then eluted with free glutathione. The eluate was transferred to methanol:chloroform:water (4:3:1) mixture and then centrifuged at 14,000 rpm for 90 sec. The organic phase was collected, evaporated in the SpeedVac, reconstituted with 30 μL chloroform or acetonitrile, and then analyzed by GC-MS. In another case, E18 cultured hippocampal neurons were transduced with lentiviral particles conjugated with PPARα-LBD or different GFP-tagged mutated constructs followed by pulling down with anti-PPARα antibody or passing the extract through GFP-column of Vector Fusion-Aid GFP Kit (Cat # MB-0732). After that, the eluate was collected from the column with 5M NaCl solution, concentrated with PD-10 desalting column and analyzed for GC-MS.
A JEOL GCMate II (JEOL USA, Peabody Mass.) mass spectrometer was used in these experiments. The gas chromatograph was an Agilent 6890Plus (Wilmington Del.) equipped with a G1513A auto-injector with 100 vial sample tray connected to a G1512A controller. The gas chromatography column was a fused silica capillary column with a nonpolar 5% phenyl 95% dimethylpolysiloxane phase (Agilent HP-5 ms), 30 meters long, 0.25 mm internal diameter, 0.25 μm film thickness. […]

[2] = target: T1, Y314D-Ppara (Mus musculus, UniProt P23204, Y314D); test: as above; type: binding; conditions: lenti-GFP-Y314D-Ppara transduced Ppara-null neurons
T1 construct: the entire mouse GFP-Ppara gene (GFP-FLPpara) and three different mutated genes were cloned; expressed in transfected cells; host or cells: Ppara-null mouse hippocampal neurons, lentiviral transduction
T1 sequence (P23204 1-468 Y314D): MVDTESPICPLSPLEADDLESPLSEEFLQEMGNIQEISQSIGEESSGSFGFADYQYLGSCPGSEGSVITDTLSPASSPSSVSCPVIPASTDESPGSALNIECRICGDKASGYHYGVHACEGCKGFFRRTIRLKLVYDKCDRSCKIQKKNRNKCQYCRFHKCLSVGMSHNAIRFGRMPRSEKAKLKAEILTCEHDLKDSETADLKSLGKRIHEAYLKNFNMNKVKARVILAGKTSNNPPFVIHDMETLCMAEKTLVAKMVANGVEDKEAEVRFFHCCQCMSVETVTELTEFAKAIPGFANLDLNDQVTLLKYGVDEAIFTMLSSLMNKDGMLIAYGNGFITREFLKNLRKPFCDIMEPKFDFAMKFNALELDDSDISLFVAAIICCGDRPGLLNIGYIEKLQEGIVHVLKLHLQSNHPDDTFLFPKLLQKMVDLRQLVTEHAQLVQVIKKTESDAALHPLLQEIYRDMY
Procedure: Lentivirus-mediated de novo expression studies were performed, where wild type full-length (GFP-FLPpara) was overexpressed and three different LBD-mutated PPARα (GFP-Y314D, GFP-Y464D and GFP-Y314D/Y464D Ppara) recombinant proteins (FIG. 9D) were expressed in neurons followed by binding analyses with three endogenous ligands. Briefly, site directed mutagenesis was performed in the mouse PPARα with Y314 and Y464 residues replaced separately or together with aspartate (D). […] We normalized peak area of different ligands with that of internal standard and then quantified the binding affinity of these ligands with different construct of PPARα by peak integration statistics (Table 1).
Either E18 cultured mouse hippocampal neurons or hippocampal tissue of 6-8 week old male C57/BL6 mice were homogenized in ice-cold nondetergent hypotonic buffer [10 mM HEPES (pH 7.9), 1.5 mM MgCl2, 10 mM KCl, […], protease and phosphatase inhibitor cocktail]. […] The organic phase was collected, evaporated in the SpeedVac, reconstituted with 30 μL chloroform or acetonitrile, and then analyzed by GC-MS. […] After that, the eluate was collected from the column with 5M NaCl solution, concentrated with PD-10 desalting column and analyzed for GC-MS. […]

SMILES: CCCCCCCCCCCCCCCC(N)=O [HEX, hexadecanamide]
- % RA [1]: 1.92%
- Adjusted peak area [1]: 17632
- Rel. Abundance (RA) [1]: 0.01924
- amount detected in nuclear extract by GC-MS [2]: low amount

SMILES: CCCCCCCCC=CCCCCCCCC(N)=O [OCT, 9-octadecenamide]
- % RA [1]: 8.69%
- Adjusted peak area [1]: 79623
- Rel. Abundance (RA) [1]: 0.08689
- amount detected in nuclear extract by GC-MS [2]: low amount

Reference: US10617664B2, “Brain derived PPARα ligands” (Rush University Medical Center, priority 2015, dated 2020)
